The record followed here is patent US20080249028A1, “Thyrotropin-Releasing Hormone Analogs and Method of Use” (Roger Williams Hospital, priority 2005, published 2008).

The assay has as its system STZ-induced hyperglycemic rats. The assay can be described thus: Effect on STZ-induced hyperglycemia in rats (blood glucose level). Format: in vivo, rat. The procedure:
Male Sprague-Dawley rats (S.D. 180 g) were used in the experiments described below. The animals lived in individual metabolism cages with free access to food and water, while food and body weight were monitored daily. Peripheral blood samples (approximately 10 μl) were obtained from the tail vein of the animals. The blood glucose levels were measured by using Accu-Check Blood Glucose Meter (Roche Diagnosetics Corporation, IN). Beta cell function was evaluated once every two days over a 2-week period by an individual unaware of the treatment group. Animals were evaluated separately for blood glucose level, food intake and body weight. The endpoint check was pancreatic insulin content and pancreatic beta cell number.
Streptozotocin (STZ) was used to chemically induce damage in pancreatic function in order to create a hyperglycemic state in the animals. Eight-week old male Sprague-Dawley rats (200.00 g±10 g) were injected with STZ by intraperitoneal (i.p.) (65 mg/kg body weight (BW)) to create hyperglycemic animals (24 to 48 hours). Blood glucose levels were monitored daily. Onset of hyperglycemia occurred usually about 24 to 48 hours after STZ administration.
[…] the seventh day or on the third day after STZ administration, which allowed for examination of the TRH/TRH analog treatment and the degree of pancreatic damage in the diabetic animal. Again, food intake, body weight and blood glucose levels of each of the animals were monitored. When hyperglycemia was determined to be reversed by TRH/TRH analog, the animal was sacrificed. Blood samples were collected for insulin assay and the pancreas and muscles were collected for further pathological and physiological tests.
The figures shown in the tables are blood glucose levels (mg/dL; i.e., milligrams of glucose per deciliter of blood).

Setting [1] is: Table 1, rats, STZ + compound i.p., Day 1.
[2] abbreviates: Table 1, rats, STZ + compound i.p., Day 2.
Setting [3] is: Table 1, rats, STZ + compound i.p., Day 4.
The mark [4] stands for this setting: Table 1, rats, STZ + compound i.p., Day 9.
Setting [5] is: Table 1, rats, STZ + compound i.p., Day 15.
The mark [6] stands for this setting: Table 1, rats, STZ + compound i.p., Day 22.
Where [7] appears, read: Table 1, rats, STZ + compound i.p., Day 29.
[8] abbreviates: Table 1, rats, STZ + compound i.p., Day 39.
Setting [9] is: Table 1, rats, STZ + compound i.p., Day 43.
Setting [10] is: Table 1, rats, STZ + compound i.p., Day 50.
[11] abbreviates: Table 1, rats, STZ + compound i.p., Day 53.
The mark [12] stands for this setting: Table 1, rats, STZ + compound i.p., Day 56.
Setting [13] is: Table 1, rats, STZ + compound i.p., Day 60.
The mark [14] stands for this setting: Table 1, rats, STZ + compound i.p., Day 64.

Where a SMILES comes first, the peptide text is derived from it. [ ]: non-standard residue; d: D form. pGlu = O=C1CC[CH](C(=O)O)N1

For the compound `CN(N=O)C(=O)N[C@@H]1[C@@H](O)[C@H](O)[C@@H](CO)O[C@@H]1O` [S, streptozotocin, reference compound], the blood glucose level reads like this: (Table 1, rats, STZ alone, Day 1) 99.8 mg/dL; (Table 1, rats, STZ alone, Day 2) 313.2 mg/dL; (Table 1, rats, STZ alone, Day 4) 433.6 mg/dL; (Table 1, rats, STZ alone, Day 9) 320 mg/dL; (Table 1, rats, STZ alone, Day 15) 393.8 mg/dL; (Table 1, rats, STZ alone, Day 22) 463.8 mg/dL. Further, the blood glucose level is listed as 522.4 mg/dL (Table 1, rats, STZ alone, Day 29); 537.2 mg/dL (Table 1, rats, STZ alone, Day 39); 466.8 mg/dL (Table 1, rats, STZ alone, Day 43); 485 mg/dL (Table 1, rats, STZ alone, Day 50); 460 mg/dL (Table 1, rats, STZ alone, Day 53); 453 mg/dL (Table 1, rats, STZ alone, Day 56). The blood glucose level runs as follows: (Table 1, rats, STZ alone, Day 60) 542 mg/dL; (Table 1, rats, STZ alone, Day 64) 482 mg/dL; (Table 2, rats, STZ alone, Day 1) 98 mg/dL; (Table 2, rats, STZ alone, Day 4) 103 mg/dL; (Table 2, rats, STZ alone, Day 7) 506 mg/dL; (Table 2, rats, STZ alone, Day 11) 494 mg/dL. For the same compound, the blood glucose level by setting is: (Table 2, rats, STZ alone, Day 15) 329 mg/dL; (Table 2, rats, STZ alone, Day 18) 432 mg/dL; (Table 2, rats, STZ alone, Day 21) 453 mg/dL; (Table 2, rats, STZ alone, Day 25) 480 mg/dL; (Table 2, rats, STZ alone, Day 28) 499 mg/dL; (Table 2, rats, STZ alone, Day 32) 529 mg/dL. The blood glucose level reads like this: (Table 2, rats, STZ alone, Day 35) 499 mg/dL; (Table 2, rats, STZ alone, Day 39) 508 mg/dL; (Table 2, rats, STZ alone, Day 42) 549 mg/dL; (Table 2, rats, STZ alone, Day 46) 536 mg/dL; (Table 2, rats, STZ alone, Day 54) 500 mg/dL; (Table 2, rats, STZ alone, Day 61) 582 mg/dL. Besides, for the setting “rats, STZ 65 mg/kg BW i.p.”, the “onset of hyperglycemia after STZ administration” value fell in the range of 24 to 48 h.
Turning to `NC(=O)CNC(=O)C1CCCN1C(=O)C(Cc1c[nH]cn1)NC(=O)C1CCC(=O)N1` (stereo not drawn) [Glp, Glp-His-Pro-Gly-NH2] ([pGlu]HPG-NH2; configuration not given here), the blood glucose level under setting [1] was 103.8 mg/dL; the blood glucose level under setting [2] worked out at 396 mg/dL; the blood glucose level under setting [3] is 446 mg/dL; the blood glucose level under setting [4] was 275 mg/dL; the blood glucose level under setting [5] amounted to 348 mg/dL; the blood glucose level under setting [6] turned out to be 419 mg/dL. Also, the blood glucose level amounted to 431 mg/dL under setting [7]; 448 mg/dL under setting [8]; 423 mg/dL under setting [9]; 416 mg/dL under setting [10]; 432 mg/dL under setting [11]; 400 mg/dL under setting [12]. The blood glucose level under setting [13] came to 468 mg/dL and the blood glucose level under setting [14] is 421 mg/dL.
In the case of `NC(=O)C1CCCN1C(=O)C(Cc1ccccc1)NC(=O)C1CCC(=O)N1` (stereo not drawn) [PheT, 1-{3-phenyl-2-[(5-oxo-pyrrolidine-2-carbonyl)-amino]-propionyl}-pyrrolidine-2-carboxylic acid amide] ([pGlu]-Phe-Pro-NH2; configuration not given here), the blood glucose level by setting is: under setting [1], 105.8 mg/dL; under setting [2], 316.8 mg/dL; under setting [3], 419.8 mg/dL; under setting [4], 130.8 mg/dL; under setting [5], 234.4 mg/dL; under setting [6], 359.2 mg/dL. For the same compound, the blood glucose level reads like this: under setting [7], 407.2 mg/dL; under setting [8], 434.8 mg/dL; under setting [9], 432 mg/dL; under setting [10], 478 mg/dL; under setting [11], 424 mg/dL; under setting [12], 355 mg/dL. The blood glucose level under setting [13] was 381 mg/dL and the blood glucose level under setting [14] is listed as 414 mg/dL.
